Literature values in patent publication US12378302B2, “Fusion molecules and uses thereof” (Foundation Medicine, Inc., priority 2012, dated 2025).
Like-named read-outs stand apart in the source and are kept apart here. One block for each compound: values may come before it.

Legend:
[1] = target: T1, PDGFRα (Homo sapiens, UniProt P16234); conditions: read-out: IC50 against PDGFRα
[2] = target: T1, PDGFRα
[3] = system: Akt and PDK1
[4] = target: FKBP12 (Homo sapiens, UniProt P62942); conditions: read-out: IC50 mTOR inhibitor of FKBP12
[5] = target: PI3Kγ (Homo sapiens, UniProt P48736); conditions: read-out: Ki PI3Kγ (p110γ)
[6] = system: PI3Ks
[7] = system: PDGFRβ, IGF-1R, EGFR
[8] = system: Vps34, AKT, PDK1, p70S6K, MEK, ERK, p38, or JNK
[9] = system: PDGFR; conditions: read-out: IC50 PDGFR
[10] = system: panel of 12 PMTs and DNMT1
[11] = system: cells expressing FGFR1 fusions
[12] = system: early stage NSCLC patients; conditions: Phase 2 trial
[13] = system: advanced cervical cancer; conditions: Phase 2, pazopanib arm compared to lapatinib therapy
[14] = system: advanced urothelial cancer; conditions: Phase 2, single agent
[15] = system: all four Fgfr kinases
[16] = system: all four Fgfr kinases; conditions: preclinical studies
[17] = system: MTC; conditions: randomized Phase 3, vandetanib compared to placebo
[18] = system: VEGFR-stimulated cells; conditions: read-out: IC50 cell proliferation of VEGFR-stimulated cells
[19] = system: EGFR-stimulated HUVEC; conditions: read-out: IC50 EGFR-stimulated HUVEC proliferation
[20] = system: VEGFR-stimulated cells; conditions: read-out: IC50 cell proliferation of VEGFR-stimulated cells; remark: listed apart in the source
[21] = system: EGFR-stimulated HUVEC; conditions: read-out: IC50 EGFR-stimulated HUVEC proliferation; remark: listed apart in the source

T1 sequence (P16234 24-1089, species assumed): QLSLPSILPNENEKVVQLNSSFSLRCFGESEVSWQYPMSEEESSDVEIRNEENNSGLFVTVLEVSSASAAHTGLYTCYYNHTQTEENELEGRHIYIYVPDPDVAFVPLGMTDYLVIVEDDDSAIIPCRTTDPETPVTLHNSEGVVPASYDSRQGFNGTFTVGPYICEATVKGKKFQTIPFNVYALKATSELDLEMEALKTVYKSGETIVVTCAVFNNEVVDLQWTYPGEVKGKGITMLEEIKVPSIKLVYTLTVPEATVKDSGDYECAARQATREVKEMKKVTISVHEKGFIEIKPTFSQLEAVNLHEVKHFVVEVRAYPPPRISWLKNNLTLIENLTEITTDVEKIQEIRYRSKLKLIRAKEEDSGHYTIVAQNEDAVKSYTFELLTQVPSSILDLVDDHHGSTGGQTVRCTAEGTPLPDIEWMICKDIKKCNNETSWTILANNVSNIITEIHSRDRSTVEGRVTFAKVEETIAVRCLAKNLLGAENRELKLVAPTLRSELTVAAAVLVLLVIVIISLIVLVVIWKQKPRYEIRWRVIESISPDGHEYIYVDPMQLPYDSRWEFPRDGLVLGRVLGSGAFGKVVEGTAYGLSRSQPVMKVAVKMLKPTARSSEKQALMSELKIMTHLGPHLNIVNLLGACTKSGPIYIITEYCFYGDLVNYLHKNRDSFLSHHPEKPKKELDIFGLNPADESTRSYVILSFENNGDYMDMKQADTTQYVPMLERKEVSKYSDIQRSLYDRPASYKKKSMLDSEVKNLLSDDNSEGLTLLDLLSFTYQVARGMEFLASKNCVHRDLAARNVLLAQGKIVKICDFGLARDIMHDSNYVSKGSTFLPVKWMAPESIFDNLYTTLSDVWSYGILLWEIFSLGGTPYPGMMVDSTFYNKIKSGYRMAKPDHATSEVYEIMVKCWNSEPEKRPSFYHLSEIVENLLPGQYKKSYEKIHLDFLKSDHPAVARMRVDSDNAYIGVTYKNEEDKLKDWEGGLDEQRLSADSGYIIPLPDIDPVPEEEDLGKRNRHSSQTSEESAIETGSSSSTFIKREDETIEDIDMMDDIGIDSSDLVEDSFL
FKBP12, sequence (P62942 whole entry): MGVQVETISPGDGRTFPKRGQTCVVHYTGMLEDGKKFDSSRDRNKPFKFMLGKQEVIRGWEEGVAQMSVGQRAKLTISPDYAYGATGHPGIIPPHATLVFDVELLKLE
PI3Kγ, sequence (P48736 whole entry): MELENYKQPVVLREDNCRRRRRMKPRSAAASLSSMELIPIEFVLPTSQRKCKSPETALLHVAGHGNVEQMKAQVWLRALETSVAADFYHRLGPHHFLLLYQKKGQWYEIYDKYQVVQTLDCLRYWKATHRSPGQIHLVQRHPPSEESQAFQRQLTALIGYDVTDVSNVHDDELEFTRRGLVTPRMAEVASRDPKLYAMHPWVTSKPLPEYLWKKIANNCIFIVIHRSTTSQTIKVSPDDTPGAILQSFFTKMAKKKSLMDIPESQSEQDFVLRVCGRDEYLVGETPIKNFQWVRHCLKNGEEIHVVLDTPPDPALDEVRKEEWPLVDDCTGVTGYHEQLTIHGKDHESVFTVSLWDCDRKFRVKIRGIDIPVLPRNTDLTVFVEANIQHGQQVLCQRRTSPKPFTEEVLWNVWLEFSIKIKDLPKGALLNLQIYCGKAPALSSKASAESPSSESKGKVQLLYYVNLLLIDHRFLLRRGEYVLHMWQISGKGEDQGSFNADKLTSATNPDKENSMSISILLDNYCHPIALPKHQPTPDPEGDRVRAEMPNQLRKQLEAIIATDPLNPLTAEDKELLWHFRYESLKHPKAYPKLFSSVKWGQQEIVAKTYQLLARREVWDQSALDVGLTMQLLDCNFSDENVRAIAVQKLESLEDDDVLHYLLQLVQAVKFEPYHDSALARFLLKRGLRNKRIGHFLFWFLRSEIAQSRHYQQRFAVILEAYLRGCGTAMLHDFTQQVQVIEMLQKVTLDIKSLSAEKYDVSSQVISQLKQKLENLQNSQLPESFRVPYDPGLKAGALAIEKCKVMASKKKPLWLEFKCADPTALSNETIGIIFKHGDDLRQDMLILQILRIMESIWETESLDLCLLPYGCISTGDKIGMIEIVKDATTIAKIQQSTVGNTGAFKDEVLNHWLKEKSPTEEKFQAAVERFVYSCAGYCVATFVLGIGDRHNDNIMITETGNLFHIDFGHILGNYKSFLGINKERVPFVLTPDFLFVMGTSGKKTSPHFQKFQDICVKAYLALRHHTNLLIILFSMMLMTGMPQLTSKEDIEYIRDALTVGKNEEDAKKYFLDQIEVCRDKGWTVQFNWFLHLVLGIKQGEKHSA

IC50 [1]: 40 nM
IC50 [2]: 40 nM
SMILES: S=C(NCc1ccc2c(c1)OCO2)N1CCN(c2ncnc3c2oc2ccccc23)CC1 [Amuvatinib]

SMILES: Cn1c(=O)n(-c2ccc(C(C)(C)C#N)cc2)c2c3cc(-c4cnc5ccccc5c4)ccc3ncc21 [BEZ235, 2-methyl-2-(4-(3-methyl-2-oxo-8-(quinolin-3-yl)-2,3-dihydroimidazo[4,5-c]quinolin-1-yl)phenyl)propanenitrile]
inhibition of Akt and PDK1 [3]: poor inhibitory

IC50 [4]: 1.6 to 2.4 nM
SMILES: CO[C@H]1C[C@@H]2CC[C@@H](C)[C@@](O)(O2)C(=O)C(=O)N2CCCC[C@H]2C(=O)O[C@H]([C@@H](C)C[C@@H]2CC[C@@H](OCCO)[C@H](OC)C2)CC(=O)[C@H](C)/C=C(\C)[C@@H](O)[C@@H](OC)C(=O)C(C)C[C@H](C)/C=C/C=C/C=C/1C (stereo partly drawn) [Everolimus, 23,27-Epoxy-3H-pyrido[2,1-c][1,4]oxaazacyclohentriacontine, rapamycin deriv]

Ki [5]: 0.024 nM
SMILES: COc1ncc(-c2ccc3nccc(-c4ccnnc4)c3c2)cc1NS(=O)(=O)c1ccc(F)cc1F [GSK2126458, 2,4-difluoro-N-(2-methoxy-5-(4-(pyridazin-4-yl)quinolin-6-yl)pyridin-3-yl)benzenesulfonamide]

SMILES: COc1ccc(-c2ccc3c(N4CCOCC4)nc(N4C[C@@H](C)O[C@@H](C)C4)nc3n2)cc1CO [KU-0063794, (5-(2-((2R,6S)-2,6-dimethylmorpholino)-4-morpholinopyrido[2,3-d]pyrimidin-7-yl)-2-methoxyphenyl)methanol]
effect on PI3Ks [6]: no effect

SMILES: O=C(c1ccc(/C=C/c2n[nH]c3ccccc23)cc1)N1CCNCC1 [KW-2449, (E)-(4-(2-(1H-indazol-3-yl)vinyl)phenyl)(piperazin-1-yl)methanone]
effect on PDGFRβ, IGF-1R, EGFR [7]: little effect

SMILES: COc1ccc(-c2cc3c(C)nc(N)nc3n([C@H]3CC[C@H](OCCO)CC3)c2=O)cn1 [PF-04691502, 2-amino-8-((1r,4r)-4-(2-hydroxyethoxy)cyclohexyl)-6-(6-methoxypyridin-3-yl)-4-methylpyrido[2,3-d]pyrimidin-7(8H)-one]
activity against Vps34, AKT, PDK1, p70S6K, MEK, ERK, p38, or JNK [8]: little activity

SMILES: Nc1ncnc2c1c(-c1cnc3[nH]ccc3c1)nn2C1CCCC1 [PP-121, 1-cyclopentyl-3-(1H-pyrrolo[2,3-b]pyridin-5-yl)-1H-pyrazolo[3,4-d]pyrimidin-4-amine]
IC50 [9]: 2 nM

SMILES: CC(C)N(CCCNC(=O)Nc1ccc(C(C)(C)C)cc1)C[C@H]1O[C@@H](n2cc(Br)c3c(N)ncnc32)[C@H](O)[C@@H]1O [SGC 0946, 1-[3-[[[(2R,3S,4R,5R)-5-(4-Amino-5-bromo-7H-pyrrolo[2,3-d]pyrimidin-7-yl)-3,4-dihydro-xytetrahydrofuran-2-yl]methyl](isopropyl)amino]pro-pyl]-3-[4-(2,2-dimethylethyl)phenyl]urea]
activity against a panel of 12 PMTs and DNMT1 [10]: inactive

SMILES: Cc1nc(Nc2ncc(C(=O)Nc3c(C)cccc3Cl)s2)cc(N2CCN(CCO)CC2)n1 [dasatinib]
sensitivity of cells expressing FGFR1 fusions [11]: sensitivity

SMILES: Cc1ccc(Nc2nccc(N(C)c3ccc4c(C)n(C)nc4c3)n2)cc1S(N)(=O)=O [pazopanib]
patients who achieved partial response [12]: 3 patients
patients who experienced a reduction in tumor volume ([12]; 30/35): 86%
PFS and OS [13]: improved PFS and OS
Disease control rate [14]: 51.2%
Partial responses (patients/enrolled) [14]: 7/41
Stable disease (patients/enrolled) [14]: 14/41

SMILES: Cc1ccc(C(=O)Nc2ccc(CN3CCN(C)CC3)c(C(F)(F)F)c2)cc1C#Cc1cnc2cccnn12 [ponatinib]
activity against all four Fgfr kinases [15]: substantial activity
activity against all four Fgfr kinases [16]: substantial activity

SMILES: COc1cc2c(Nc3ccc(Br)cc3F)ncnc2cc1OCC1CCN(C)CC1 [vandetanib]
PFS [17]: significant improvement in PFS
IC50 [18]: 60 nM
IC50 [19]: 170 nM
IC50 [20]: 60 nM
IC50 [21]: 170 nM
